Where “and” joins values, the source holds several entries; their conditions need not be identical. Equal values may be shown once.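 These data come from cells grown in 96-well plates and exposed to compound for 48 hours at five concentrations. The concentration for 50% growth inhibition is given as GI50. TGI marks complete inhibition of growth.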
Columns and labels:
Test in all cases: NCI-60 cell line screen, 48 h
HL-60(TB) leukemia = test system: HL-60(TB) leukemia
SNB-75 CNS = test system: SNB-75 CNS
HOP-62 NSCLC = test system: HOP-62 NSCLC
UACC-257 melanoma = test system: UACC-257 melanoma
786-0 renal = test system: 786-0 renal
RXF 393 renal = test system: RXF 393 renal
MDA-MB-231 breast = test system: MDA-MB-231 breast
NCI-H23 lung = test system: NCI-H23 lung
SF-268 CNS = test system: SF-268 CNS
OVCAR-4 ovarian = test system: OVCAR-4 ovarian

Compound	TGI (HL-60(TB) leukemia)	TGI (SNB-75 CNS)	GI50 (HOP-62 NSCLC)	TGI (HOP-62 NSCLC)	GI50 (UACC-257 melanoma)	TGI (UACC-257 melanoma)	TGI (786-0 renal)	TGI (RXF 393 renal)	TGI (MDA-MB-231 breast)	TGI (NCI-H23 lung)	TGI (SF-268 CNS)	TGI (OVCAR-4 ovarian)	GI50 (HL-60(TB) leukemia)	GI50 (SNB-75 CNS)	GI50 (NCI-H23 lung)	GI50 (SF-268 CNS)	GI50 (OVCAR-4 ovarian)	GI50 (RXF 393 renal)
COc1cc2c(c(OC)c1OC)-c1ccc(SC)c(=O)cc1[C@@H](NCc1ccc([N+](=O)[O-])cc1)CC2	1.49 µM	> 100 µM	0.429 µM	> 100 µM	0.0771 µM	> 100 µM	> 100 µM	0.00781 µM	–	–	–	–	–	–	–	–	–	–
CC1CCC2(OC1)OC1C(O)C3C4CCC5CC(OC6OC(CO)C(OC7OC(CO)C(O)C(OC8OCC(O)C(O)C8O)C7OC7OC(CO)C(O)C(OC8OC(CO)C(O)C(O)C8O)C7O)C(O)C6O)C(O)CC5(C)C4CCC3(C)C1C2C (centres undefined)	7.21 µM	7.76 µM	–	3.92 µM	–	22.9 µM	2.96 µM	–	4.3 µM	4.41 µM	4.85 µM	4.04 µM	–	–	–	–	–	–
CCN(CC)C(=O)Cn1c2c(c3ccccc31)CCCC2	> 100 µM	–	–	> 100 µM	–	> 100 µM	> 100 µM	–	–	> 100 µM	> 100 µM	–	–	–	–	–	–	–
Cc1ncc(COP(=O)(O)O)c(/C=C2\SC(=S)NC2=O)c1O	–	> 100 µM	–	> 100 µM	–	> 100 µM	> 100 µM	> 100 µM	> 100 µM	> 100 µM	> 100 µM	> 100 µM	–	–	–	–	–	–
Oc1ccc(Oc2cc3c(cc2Oc2ccc(O)cc2)-c2nc-3nc3[nH]c(nc4nc(nc5[nH]c(n2)c2cc(Oc6ccc(O)cc6)c(Oc6ccc(O)cc6)cc52)-c2cc(Oc5ccc(O)cc5)c(Oc5ccc(O)cc5)cc2-4)c2cc(Oc4ccc(O)cc4)c(Oc4ccc(O)cc4)cc32)cc1	–	> 100 µM	–	> 100 µM	–	> 100 µM	> 100 µM	–	52.4 µM	> 100 µM	> 100 µM	> 100 µM	–	–	–	–	–	–
CCCCCCCCC#CCCCCCCCCCC[C@@H]1C(=O)O[C@H](C)[C@@H]1O (tested in a mixture with another compound)	–	52.4 µM	–	39 µM	–	> 100 µM	31.4 µM	28.4 µM	94.6 µM	22.3 µM	30.4 µM	54.9 µM	–	–	–	–	–	–
Cc1c([C@H](C)[C@@H]2NC[C@@H](C)C[C@H]2O)ccc2c1C[C@H]1[C@H]2CC=C2C[C@@H](O)CC[C@@]21C	–	51.7 µM	–	96.4 µM	–	27.8 µM	37.9 µM	48.2 µM	35.4 µM	37.9 µM	> 100 µM	40 µM	–	–	–	–	–	–
CCOC(=O)C1=C(O)c2ccc(C)cc2C(=O)C1=O	> 100 µM	> 100 µM	–	> 100 µM	–	> 100 µM	> 100 µM	> 100 µM	–	98.8 µM	> 100 µM	> 100 µM	–	–	–	–	–	–
CSc1cnc2ccccc2c1Sc1c[nH]c2ccccc2c1=O	18 µM	10.3 µM	–	43.6 µM	–	48 µM	34.8 µM	37.6 µM	–	36.7 µM	> 100 µM	33 µM	–	–	–	–	–	–
O=C(N=Nc1ccccc1Cl)NNc1ccccc1Cl	44.9 µM	> 100 µM	–	> 100 µM	–	> 100 µM	34.4 µM	–	> 100 µM	> 100 µM	> 100 µM	58.5 µM	–	–	–	–	–	–
CCSC1=CC2(O)N(CCc3ccc(OC)c(OC)c3)C(=O)CC2(C(=O)OC)CC1=O (centres undefined)	73.5 µM	–	–	34.7 µM	–	34.6 µM	34 µM	–	35.4 µM	33.2 µM	–	> 100 µM	–	–	–	–	–	–
CCOc1cc2c(cc1O)C(O)C[C@@H]1[C@@H]2CC[C@]2(C)[C@@H](O)CC[C@@H]12 (some centres undefined)	–	> 100 µM	–	> 100 µM	–	> 100 µM	> 83 µM	5.25 µM	> 66 µM	> 24.7 µM	> 100 µM	> 100 µM	–	–	–	–	–	–
CCN(CC)CC1CCCCN1CC(=O)N1CC(C)C(=O)Nc2ccccc21 (centres undefined)	> 100 µM	–	–	> 100 µM	–	> 100 µM	> 100 µM	–	–	> 100 µM	> 100 µM	> 100 µM	–	–	–	–	–	–
Clc1cc(Cl)ncn1	–	> 100 µM	–	> 100 µM	–	–	> 100 µM	> 100 µM	> 100 µM	> 100 µM	> 100 µM	> 100 µM	–	–	–	–	–	–
[N-]=[N+]=NCC(O)Cn1cnc2c(NC(=O)c3ccccc3)ncnc21 (centres undefined)	> 100 µM	> 100 µM	–	> 100 µM	–	> 100 µM	> 100 µM	> 100 µM	–	> 100 µM	> 100 µM	> 100 µM	–	–	–	–	–	–
N/C(=N\N=C\c1ncccc1O)NO	> 26.5 µM	> 62.6 µM	–	> 93 µM	–	> 100 µM	–	> 100 µM	–	> 100 µM	90.8 µM	> 100 µM	–	–	–	–	–	–
C=C1C(C)C2C(Cc3ccccc3)NC(=O)C23OC(=O)/C=C\CC(=O)CCC(C)C/C=C/C3C1O (centres undefined)	–	2.64 µM	–	7.33 µM	–	3.89 µM	–	1.42 µM	–	12.5 µM	7.48 µM	7.39 µM	0.158 µM and 0.755 µM	0.594 µM	–	–	–	–

Compound	TGI (HL-60(TB) leukemia)	TGI (SNB-75 CNS)	GI50 (HOP-62 NSCLC)	TGI (HOP-62 NSCLC)	GI50 (UACC-257 melanoma)	TGI (UACC-257 melanoma)	TGI (786-0 renal)	TGI (RXF 393 renal)	TGI (MDA-MB-231 breast)	TGI (NCI-H23 lung)	TGI (SF-268 CNS)	TGI (OVCAR-4 ovarian)	GI50 (HL-60(TB) leukemia)	GI50 (SNB-75 CNS)	GI50 (NCI-H23 lung)	GI50 (SF-268 CNS)	GI50 (OVCAR-4 ovarian)	GI50 (RXF 393 renal)
CCOC(=O)CCC(C(=O)OCC)n1nnc2cc(Nc3c(C)[n+]([O-])c4cc(F)c(OCC)cc4[n+]3[O-])ccc21 (centres undefined)	> 100 µM	57.2 µM	–	> 100 µM	–	> 100 µM	> 100 µM	38.7 µM	–	> 100 µM	94.9 µM	> 100 µM	–	–	–	–	–	–
Cc1c2ccncc2c(C)c2c1[nH]c1ccc(OCCN(C)C)cc12	–	1.31 µM	–	1.95 µM	–	2.07 µM	–	0.906 µM	–	1.22 µM	0.919 µM	0.368 µM	–	–	–	–	–	–
COc1ccc(C(=O)/C=C/c2cc(-c3cc(OC)c(OC)c(OC)c3)n[nH]2)cc1	4.78 µM	–	1.76 µM	3.77 µM	–	–	–	2.56 µM	–	12.2 µM	5.12 µM	8.32 µM	2.16 µM	–	3.04 µM	1.99 µM	2.2 µM	1.27 µM
CCOC(=O)Nc1ccc(S(=O)(=O)Nn2cnnc2)cc1	> 100 µM	–	–	> 100 µM	–	> 100 µM	> 100 µM	> 100 µM	> 100 µM	> 100 µM	> 100 µM	73.4 µM	–	–	–	–	–	–
O=C(O)/C=C\C(=O)Nn1c(Cc2ccc(Cl)cc2)n[nH]c1=O	> 100 µM	–	–	> 100 µM	–	> 100 µM	> 100 µM	> 100 µM	> 100 µM	> 100 µM	> 100 µM	> 100 µM	–	–	–	–	–	–
COc1ccc2cc(C(C)C(=O)N3C(=O)OCC3(C)C)ccc2c1 (centres undefined)	> 100 µM	> 100 µM	–	> 100 µM	–	> 100 µM	> 100 µM	–	> 100 µM	> 100 µM	> 100 µM	> 100 µM	–	–	–	–	–	–
S=C1SC(=Nc2ccccc2)C(=Nc2ccccc2)N1c1ccc2ccccc2c1	> 100 µM	> 100 µM	–	> 100 µM	–	–	–	> 100 µM	> 100 µM	> 100 µM	–	> 100 µM	–	–	–	–	–	–
O=c1c2ccccc2nc2ccc3c(Cl)[nH][nH]c3c12	> 100 µM	> 100 µM	–	> 100 µM	–	> 92.7 µM	> 100 µM	> 100 µM	–	> 100 µM	> 100 µM	> 100 µM	–	–	–	–	–	–
COC(NC(=O)Nc1ccccc1C)(C(F)(F)F)C(F)(F)F	> 100 µM	> 100 µM	–	> 100 µM	–	–	> 100 µM	> 100 µM	–	> 100 µM	> 100 µM	> 100 µM	–	–	–	–	–	–
O=c1[nH]c(=O)n(C2OC(CO)C(O)C2O)cc1OCCCc1ccccc1 (centres undefined)	> 100 µM	–	–	> 100 µM	–	> 100 µM	> 100 µM	> 100 µM	> 100 µM	> 100 µM	> 100 µM	> 100 µM	–	–	–	–	–	–
COc1ccc(Oc2ccccc2N)cc1	> 100 µM	> 100 µM	–	> 100 µM	–	> 100 µM	–	98.2 µM	–	> 100 µM	> 100 µM	> 100 µM	–	–	–	–	–	–
COC1=CC(=O)N(C)C(O)C1(C#N)OC1OC(CO)C(O)C(O)C1O (centres undefined)	> 100 µM	> 100 µM	–	> 100 µM	–	> 100 µM	> 100 µM	–	> 100 µM	> 100 µM	> 100 µM	> 100 µM	–	–	–	–	–	–
C#CCOC(=O)c1ccc(OC(C)=O)cc1	–	> 100 µM	–	> 100 µM	–	> 100 µM	> 100 µM	> 100 µM	> 100 µM	> 100 µM	> 100 µM	> 100 µM	–	–	–	–	–	–
O=C1/C(=C/c2cccc3ccccc23)CCc2ccc([N+](=O)[O-])cc21	> 100 µM	42.1 µM	–	> 100 µM	–	–	65.5 µM	88.8 µM	> 100 µM	> 100 µM	> 100 µM	–	–	–	–	–	–	–
CCOC1=C(c2ccccc2)N2CCCCC2O1 (centres undefined)	–	28.7 µM	–	17.6 µM	–	> 33.6 µM	> 100 µM	37.4 µM	> 48.5 µM	> 36.4 µM	48.1 µM	–	–	–	–	–	–	–
NC(=O)CN1C=CCC(C(N)=O)=C1	> 100 µM	> 100 µM	–	> 100 µM	–	> 100 µM	> 100 µM	> 100 µM	–	> 100 µM	> 100 µM	> 100 µM	–	–	–	–	–	–
CC1=CCC[C@H]2[C@](C)(CC3=CC(=O)C(SCC(C)C)=CC3=O)[C@@H](C)CC[C@]12C	–	23.8 µM	–	31 µM	–	37.8 µM	27.2 µM	26.1 µM	> 64 µM	25.5 µM	–	31.8 µM	–	–	–	–	–	–

Reference: PubChem BioAssay (NCI)
